# According to PubChem BioAssay (NCI):
#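 Each compound was tested at five concentrations against cells in 96-well plates for 48 hours. TGI denotes the concentration required for complete inhibition of growth.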
# Columns and labels:
# Experiment in all cases: growth of human tumour cells (NCI), 48 h
# NCI/ADR-RES ovarian = test system: NCI/ADR-RES ovarian
# A498 renal = test system: A498 renal
# SNB-19 CNS = test system: SNB-19 CNS
# MDA-N = test system: MDA-N
# KM20L2 colon = test system: KM20L2 colon
# M19-MEL melanoma = test system: M19-MEL melanoma
# TK-10 renal = test system: TK-10 renal
# RXF 393 renal = test system: RXF 393 renal
# NCI-H522 lung = test system: NCI-H522 lung
# SNB-75 CNS = test system: SNB-75 CNS
# SW-620 colon = test system: SW-620 colon
# HOP-92 NSCLC = test system: HOP-92 NSCLC
# CCRF-CEM leukemia = test system: CCRF-CEM leukemia
# U251 CNS = test system: U251 CNS
# PC-3 prostate = test system: PC-3 prostate
# UO-31 renal = test system: UO-31 renal
# IGROV1 ovarian = test system: IGROV1 ovarian
# SK-MEL-5 melanoma = test system: SK-MEL-5 melanoma
# SK-MEL-28 melanoma = test system: SK-MEL-28 melanoma
# SF-539 CNS = test system: SF-539 CNS
# HOP-18 NSCLC = test system: HOP-18 NSCLC
# DU-145 prostate = test system: DU-145 prostate
# HCC-2998 colon = test system: HCC-2998 colon
# KM12 colon = test system: KM12 colon
# HS 578T breast = test system: HS 578T breast
# MALME-3M melanoma = test system: MALME-3M melanoma
# LXFL 529 NSCLC = test system: LXFL 529 NSCLC
# SNB-78 CNS = test system: SNB-78 CNS
# HCT-15 colon = test system: HCT-15 colon
# HT29 colon = test system: HT29 colon
# RXF-631 renal = test system: RXF-631 renal
# HOP-62 NSCLC = test system: HOP-62 NSCLC
# MCF7 breast = test system: MCF7 breast
# ACHN renal = test system: ACHN renal
# A549 NSCLC = test system: A549 NSCLC
# NCI-H226 lung = test system: NCI-H226 lung
# MOLT-4 leukemia = test system: MOLT-4 leukemia
# COLO 205 colon = test system: COLO 205 colon
# RPMI-8226 leukemia = test system: RPMI-8226 leukemia
# DMS 114 small cell lung = test system: DMS 114 small cell lung
# SF-295 CNS = test system: SF-295 CNS
# SK-MEL-2 melanoma = test system: SK-MEL-2 melanoma
# M14 melanoma = test system: M14 melanoma
# OVCAR-3 ovarian = test system: OVCAR-3 ovarian
# MDA-MB-231 breast = test system: MDA-MB-231 breast
# SF-268 CNS = test system: SF-268 CNS
# MDA-MB-435 = test system: MDA-MB-435
# 786-0 renal = test system: 786-0 renal
# CAKI-1 renal = test system: CAKI-1 renal
# DLD-1 colon = test system: DLD-1 colon
# HL-60(TB) leukemia = test system: HL-60(TB) leukemia
# HCT-116 colon = test system: HCT-116 colon
# BT-549 breast = test system: BT-549 breast
# UACC-62 melanoma = test system: UACC-62 melanoma
# XF 498 CNS = test system: XF 498 CNS
# LOX IMVI melanoma = test system: LOX IMVI melanoma
# UACC-257 melanoma = test system: UACC-257 melanoma
# OVCAR-4 ovarian = test system: OVCAR-4 ovarian
# NCI-H460 lung = test system: NCI-H460 lung
# DMS 273 small cell lung = test system: DMS 273 small cell lung
# SR leukemia = test system: SR leukemia
# OVCAR-8 ovarian = test system: OVCAR-8 ovarian
# T-47D breast = test system: T-47D breast
# NCI-H23 lung = test system: NCI-H23 lung
# EKVX NSCLC = test system: EKVX NSCLC
# SK-OV-3 ovarian = test system: SK-OV-3 ovarian
# K-562 leukemia = test system: K-562 leukemia
# SN12C renal = test system: SN12C renal
# OVCAR-5 ovarian = test system: OVCAR-5 ovarian
smiles,measurement,setting,value
CCN(CC)CCNc1ccc2nnn3c4ccc([N+](=O)[O-])cc4c(=O)c1c23,TGI,NCI/ADR-RES ovarian,30.7 µM
same,TGI,A498 renal,23.8 µM
same,TGI,SNB-19 CNS,> 100 µM
same,TGI,MDA-N,> 100 µM
same,TGI,KM20L2 colon,> 100 µM
same,TGI,M19-MEL melanoma,> 100 µM
same,TGI,TK-10 renal,> 45 µM
same,TGI,RXF 393 renal,18.9 µM
same,TGI,NCI-H522 lung,> 100 µM
same,TGI,SNB-75 CNS,42 µM
same,TGI,SW-620 colon,27.6 µM
same,TGI,HOP-92 NSCLC,40.6 µM
same,TGI,CCRF-CEM leukemia,44.3 µM
same,TGI,U251 CNS,13 µM
same,TGI,PC-3 prostate,> 100 µM
same,TGI,UO-31 renal,25 µM
same,TGI,IGROV1 ovarian,> 100 µM
same,TGI,SK-MEL-5 melanoma,58.7 µM
same,TGI,SK-MEL-28 melanoma,51.1 µM
same,TGI,SF-539 CNS,14.9 µM
same,TGI,HOP-18 NSCLC,> 100 µM
same,TGI,DU-145 prostate,> 100 µM
same,TGI,HCC-2998 colon,> 100 µM
same,TGI,KM12 colon,> 100 µM
same,TGI,HS 578T breast,73.8 µM
same,TGI,MALME-3M melanoma,62.9 µM
same,TGI,LXFL 529 NSCLC,> 96.1 µM
same,TGI,SNB-78 CNS,63.8 µM
same,TGI,HCT-15 colon,> 61 µM
same,TGI,HT29 colon,> 55.5 µM
same,TGI,RXF-631 renal,28.2 µM
same,TGI,HOP-62 NSCLC,> 71.3 µM
same,TGI,MCF7 breast,> 100 µM
same,TGI,ACHN renal,55.9 µM
same,TGI,A549 NSCLC,> 53.2 µM
same,TGI,NCI-H226 lung,17 µM
same,TGI,MOLT-4 leukemia,32 µM
same,TGI,COLO 205 colon,> 100 µM
same,TGI,RPMI-8226 leukemia,43.1 µM
same,TGI,DMS 114 small cell lung,97.3 µM
same,TGI,SF-295 CNS,> 78.4 µM
same,TGI,SK-MEL-2 melanoma,> 71.7 µM
same,TGI,M14 melanoma,49.7 µM
same,TGI,OVCAR-3 ovarian,> 100 µM
same,TGI,MDA-MB-231 breast,24.4 µM
same,TGI,SF-268 CNS,> 100 µM
same,TGI,MDA-MB-435,> 100 µM
same,TGI,786-0 renal,18.5 µM
same,TGI,CAKI-1 renal,27.3 µM
same,TGI,DLD-1 colon,> 70.1 µM
same,TGI,HL-60(TB) leukemia,30.2 µM
same,TGI,HCT-116 colon,19.7 µM
same,TGI,BT-549 breast,> 100 µM
same,TGI,UACC-62 melanoma,> 100 µM
same,TGI,XF 498 CNS,18.3 µM
same,TGI,LOX IMVI melanoma,17.9 µM
same,TGI,UACC-257 melanoma,> 69.4 µM
same,TGI,OVCAR-4 ovarian,48.9 µM
same,TGI,NCI-H460 lung,> 26.9 µM
same,TGI,DMS 273 small cell lung,23.5 µM
same,TGI,SR leukemia,> 33.6 µM
same,TGI,OVCAR-8 ovarian,16 µM
same,TGI,T-47D breast,> 100 µM
same,TGI,NCI-H23 lung,98.5 µM
same,TGI,EKVX NSCLC,> 89.7 µM
same,TGI,SK-OV-3 ovarian,> 100 µM
same,TGI,K-562 leukemia,32.8 µM
same,TGI,SN12C renal,> 83.6 µM
same,TGI,OVCAR-5 ovarian,65.1 µM
COc1cc2c(cc1OC)C1[C@@H](c3ccccc3)OCN1CC2 (stereo partly specified),TGI,A498 renal,> 100 µM
same,TGI,SNB-19 CNS,> 100 µM
same,TGI,KM20L2 colon,> 100 µM
same,TGI,M19-MEL melanoma,> 100 µM
same,TGI,TK-10 renal,> 100 µM
same,TGI,RXF 393 renal,> 100 µM
same,TGI,NCI-H522 lung,> 100 µM
same,TGI,SNB-75 CNS,> 100 µM
same,TGI,SW-620 colon,> 100 µM
same,TGI,HOP-92 NSCLC,> 100 µM
same,TGI,CCRF-CEM leukemia,> 100 µM
same,TGI,U251 CNS,> 100 µM
same,TGI,UO-31 renal,> 100 µM
same,TGI,IGROV1 ovarian,> 100 µM
same,TGI,SK-MEL-5 melanoma,> 100 µM
same,TGI,SK-MEL-28 melanoma,> 100 µM
same,TGI,SF-539 CNS,> 100 µM
same,TGI,HOP-18 NSCLC,> 100 µM
same,TGI,HCC-2998 colon,> 100 µM
same,TGI,KM12 colon,> 100 µM
same,TGI,MALME-3M melanoma,> 100 µM
same,TGI,LXFL 529 NSCLC,> 100 µM
same,TGI,SNB-78 CNS,> 100 µM
same,TGI,HCT-15 colon,> 100 µM
same,TGI,HT29 colon,> 100 µM
same,TGI,RXF-631 renal,> 100 µM
same,TGI,HOP-62 NSCLC,> 100 µM
same,TGI,ACHN renal,> 100 µM
same,TGI,A549 NSCLC,> 100 µM
same,TGI,NCI-H226 lung,> 100 µM
same,TGI,MOLT-4 leukemia,> 100 µM
same,TGI,COLO 205 colon,> 100 µM
same,TGI,RPMI-8226 leukemia,89.9 µM
same,TGI,DMS 114 small cell lung,> 100 µM
same,TGI,SF-295 CNS,> 100 µM
same,TGI,SK-MEL-2 melanoma,> 100 µM
same,TGI,M14 melanoma,> 100 µM
same,TGI,OVCAR-3 ovarian,> 100 µM
same,TGI,SF-268 CNS,> 100 µM
same,TGI,786-0 renal,> 100 µM
same,TGI,CAKI-1 renal,> 100 µM
same,TGI,DLD-1 colon,> 100 µM
same,TGI,HL-60(TB) leukemia,> 89.8 µM
same,TGI,HCT-116 colon,> 100 µM
same,TGI,UACC-62 melanoma,> 100 µM
same,TGI,XF 498 CNS,> 100 µM
same,TGI,LOX IMVI melanoma,> 100 µM
same,TGI,UACC-257 melanoma,> 100 µM
same,TGI,OVCAR-4 ovarian,> 100 µM
same,TGI,NCI-H460 lung,> 100 µM
same,TGI,DMS 273 small cell lung,> 100 µM
same,TGI,SR leukemia,> 100 µM
same,TGI,OVCAR-8 ovarian,> 100 µM
same,TGI,NCI-H23 lung,> 100 µM
same,TGI,EKVX NSCLC,> 100 µM
same,TGI,SK-OV-3 ovarian,> 100 µM
same,TGI,K-562 leukemia,> 63.1 µM
same,TGI,SN12C renal,> 100 µM
same,TGI,OVCAR-5 ovarian,> 100 µM
O=C(CC1(O)C(=O)Nc2c(Cl)ccc(Cl)c21)c1ccco1 (stereo unspecified),TGI,NCI/ADR-RES ovarian,74.1 µM
same,TGI,A498 renal,64 µM
same,TGI,SNB-19 CNS,> 100 µM
same,TGI,MDA-N,12.8 µM
same,TGI,KM20L2 colon,> 100 µM
same,TGI,M19-MEL melanoma,5.33 µM
same,TGI,TK-10 renal,> 81.6 µM
same,TGI,RXF 393 renal,43.2 µM
same,TGI,NCI-H522 lung,> 100 µM
same,TGI,SNB-75 CNS,71.7 µM
same,TGI,SW-620 colon,56.4 µM
same,TGI,HOP-92 NSCLC,49.8 µM
same,TGI,CCRF-CEM leukemia,26.9 µM
same,TGI,U251 CNS,> 74.4 µM
same,TGI,PC-3 prostate,> 100 µM
same,TGI,UO-31 renal,54.9 µM
same,TGI,IGROV1 ovarian,40 µM
same,TGI,SK-MEL-5 melanoma,31.7 µM
same,TGI,SK-MEL-28 melanoma,38.2 µM
same,TGI,SF-539 CNS,59.7 µM
same,TGI,HOP-18 NSCLC,> 100 µM
same,TGI,DU-145 prostate,> 100 µM
same,TGI,HCC-2998 colon,> 88.5 µM
same,TGI,KM12 colon,> 78.3 µM
same,TGI,HS 578T breast,71.5 µM
same,TGI,MALME-3M melanoma,34.7 µM
same,TGI,LXFL 529 NSCLC,27.4 µM
same,TGI,SNB-78 CNS,> 100 µM
same,TGI,HCT-15 colon,> 70.2 µM
same,TGI,HT29 colon,> 93.4 µM
same,TGI,RXF-631 renal,65.3 µM
same,TGI,HOP-62 NSCLC,66.2 µM
same,TGI,MCF7 breast,39.5 µM
same,TGI,ACHN renal,38.6 µM
same,TGI,A549 NSCLC,49.9 µM
same,TGI,NCI-H226 lung,47.5 µM
same,TGI,MOLT-4 leukemia,61 µM
same,TGI,COLO 205 colon,33 µM
same,TGI,RPMI-8226 leukemia,40.8 µM
same,TGI,DMS 114 small cell lung,33.5 µM
same,TGI,SF-295 CNS,40.9 µM
same,TGI,SK-MEL-2 melanoma,> 69.2 µM
same,TGI,M14 melanoma,27.8 µM
same,TGI,OVCAR-3 ovarian,18.7 µM
same,TGI,MDA-MB-231 breast,48.7 µM
same,TGI,SF-268 CNS,> 84.2 µM
same,TGI,MDA-MB-435,3.44 µM
same,TGI,786-0 renal,46.8 µM
same,TGI,CAKI-1 renal,> 72.3 µM
same,TGI,DLD-1 colon,> 100 µM
same,TGI,HL-60(TB) leukemia,35.1 µM
same,TGI,HCT-116 colon,32.4 µM
same,TGI,BT-549 breast,> 100 µM
same,TGI,UACC-62 melanoma,19.3 µM
same,TGI,XF 498 CNS,24.2 µM
same,TGI,LOX IMVI melanoma,29.4 µM
same,TGI,UACC-257 melanoma,40.1 µM
same,TGI,OVCAR-4 ovarian,24.5 µM
same,TGI,NCI-H460 lung,45.6 µM
same,TGI,DMS 273 small cell lung,> 100 µM
same,TGI,SR leukemia,14.8 µM
same,TGI,OVCAR-8 ovarian,> 73.8 µM
same,TGI,T-47D breast,72.9 µM
same,TGI,NCI-H23 lung,34 µM
same,TGI,EKVX NSCLC,50.5 µM
same,TGI,SK-OV-3 ovarian,> 74.3 µM
same,TGI,SN12C renal,31.8 µM
same,TGI,OVCAR-5 ovarian,38.7 µM
